Literature values, collected in patent publication US5840756A, “Pharmaceutical composition of L-DOPA ester” (priority 1996, dated 1998).

Tests used:
[1] = oral administration; L-DOPA ethyl ester vs L-DOPA
[2] = oral or parenteral route
[3] = not given; remark: listed apart in the source

Row | Compound | Time courses of action [1] | Function as a prodrug of levodopa [2] | Water solubility | Relief from the `off` state ([3]; direct instillation of a slurry through a duodenal tube) | Effect of oral dosing with a dilute aqueous solution ([3]; oral, dilute aqueous solution) | Treated patients in whom disabling motor fluctuations appear ([3]; within five years after initiation, in combination with carbidopa or benserazide)
1 | CCOC(=O)[C@@H](N)Cc1ccc(O)c(O)c1 [L-DOPA ethyl ester] | same time courses of action | function as a prodrug of levodopa |  |  |  | 
2 | N[C@@H](Cc1ccc(O)c(O)c1)C(=O)O [levodopa] | same time courses of action |  | low water solubility | rapid relief | appeared to be effective | about 50%
